# Measured values as given in PubChem BioAssay AID1963862 (Molecular Pharmacology Branch, DTP, NCI, 2024).
# pIC50: −log10 of the molar value.
# Test system: KRAS patient-derived spheroids with HUVEC/MSC, viability
# Assay: Anticancer human tumor 941728-121-R-J1-PDC patient-derived lung adenocarcinoma cell line growth inhibition [KRAS2]
# Details: for pIC50: curve of first compound; for viability, T/C: stronger effect = lower value
# Summary of the method: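 KRAS-mutant tumor cells were grown as spheroids with HUVEC endothelial cells and human MSCs as stroma. Targeted agents were tested alone and with KRAS pathway inhibitors. Doses started at or near clinical Cmax, or 10 microM, descending half-log.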
# 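Note: spheroids exposed to agents for seven days before readout.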
structure (smiles),measurement,setting,value
CC1OCC2(CCN(c3cnc(Sc4ccnc(N)c4Cl)c(N)n3)CC2)C1N (stereo not given) + COc1cc2nc(C)nc(NC(C)c3cc(N)cc(C(F)(F)F)c3)c2cc1OC1CCOC1,pIC50,second compound 0.1 µM,> 7.50
same,pIC50,second compound 0.316 µM,> 7.50
same,pIC50,second compound 1 µM,> 7.50
same,pIC50,second compound 3.16 µM,> 7.50
same,pIC50,second compound 10 µM,> 7.50
same,"viability, T/C","second compound 0.1 µM, first compound 0.0316 µM",49.4%
same,"viability, T/C","second compound 0.1 µM, first compound 0.1 µM",43.1%
same,"viability, T/C","second compound 0.1 µM, first compound 0.316 µM",38.4%
same,"viability, T/C","second compound 0.1 µM, first compound 1 µM",36.1%
same,"viability, T/C","second compound 0.1 µM, first compound 3.16 µM",39%
same,"viability, T/C","second compound 0.1 µM, first compound 10 µM",34.5%
same,"viability, T/C","second compound 0.316 µM, first compound 0.0316 µM",47.2%
same,"viability, T/C","second compound 0.316 µM, first compound 0.1 µM",41.4%
same,"viability, T/C","second compound 0.316 µM, first compound 0.316 µM",34.1%
same,"viability, T/C","second compound 0.316 µM, first compound 1 µM",35.7%
same,"viability, T/C","second compound 0.316 µM, first compound 3.16 µM",37%
same,"viability, T/C","second compound 0.316 µM, first compound 10 µM",39.7%
same,"viability, T/C","second compound 1 µM, first compound 0.0316 µM",48%
same,"viability, T/C","second compound 1 µM, first compound 0.1 µM",43.8%
same,"viability, T/C","second compound 1 µM, first compound 0.316 µM",35%
same,"viability, T/C","second compound 1 µM, first compound 1 µM",36.2%
same,"viability, T/C","second compound 1 µM, first compound 3.16 µM",32.3%
same,"viability, T/C","second compound 1 µM, first compound 10 µM",29.9%
same,"viability, T/C","second compound 3.16 µM, first compound 0.0316 µM",43.6%
same,"viability, T/C","second compound 3.16 µM, first compound 0.1 µM",39%
same,"viability, T/C","second compound 3.16 µM, first compound 0.316 µM",35.3%
same,"viability, T/C","second compound 3.16 µM, first compound 1 µM",33.4%
same,"viability, T/C","second compound 3.16 µM, first compound 3.16 µM",29.5%
same,"viability, T/C","second compound 3.16 µM, first compound 10 µM",26.6%
same,"viability, T/C","second compound 10 µM, first compound 0.0316 µM",30%
same,"viability, T/C","second compound 10 µM, first compound 0.1 µM",21.2%
same,"viability, T/C","second compound 10 µM, first compound 0.316 µM",13.1%
same,"viability, T/C","second compound 10 µM, first compound 1 µM",13.3%
same,"viability, T/C","second compound 10 µM, first compound 3.16 µM",11.6%
same,"viability, T/C","second compound 10 µM, first compound 10 µM",5.88%
